In paper PMC3959589 (Analytical and bioanalytical chemistry, 2014):

Columns and labels:
[1] = test system: plasma protein; settings: cited from earlier work
[2] = molecular target: T1, human serum albumin (HSA) (Homo sapiens, UniProt P02768); test: biochemical
[3] = molecular target: T1, human serum albumin (HSA); settings: dose-response, 500 nM Red Mega 500, 0.2 mg/mL HSA

T1 sequence (P02768 25-609): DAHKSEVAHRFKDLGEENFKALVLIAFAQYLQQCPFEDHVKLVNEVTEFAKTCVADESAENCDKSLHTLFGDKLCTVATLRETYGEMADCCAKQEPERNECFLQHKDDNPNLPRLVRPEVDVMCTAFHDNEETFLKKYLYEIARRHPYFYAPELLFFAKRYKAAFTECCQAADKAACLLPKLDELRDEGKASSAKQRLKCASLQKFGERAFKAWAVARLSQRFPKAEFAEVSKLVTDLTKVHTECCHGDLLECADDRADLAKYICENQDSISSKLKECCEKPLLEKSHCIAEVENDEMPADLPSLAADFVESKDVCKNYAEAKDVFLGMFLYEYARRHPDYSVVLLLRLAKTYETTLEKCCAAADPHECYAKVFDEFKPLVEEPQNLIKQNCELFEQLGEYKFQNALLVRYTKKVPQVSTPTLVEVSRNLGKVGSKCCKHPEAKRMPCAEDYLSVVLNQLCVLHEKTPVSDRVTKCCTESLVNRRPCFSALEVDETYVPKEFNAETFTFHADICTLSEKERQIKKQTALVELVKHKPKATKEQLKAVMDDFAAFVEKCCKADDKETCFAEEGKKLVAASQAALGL

| Structure (SMILES) | plasma protein binding class (low / medium / high) [1] | IC50 [2] [µM] | efficacy of inhibition of HSA–Red Mega 500 binding [3] |
| --- | --- | --- | --- |
| CC/C(=C(/CC)c1ccc(O)cc1)c1ccc(O)cc1 [diethylstilbestrol] | medium | 4.4 ± 1.9 | weaker efficacy |
| Cc1c(OCC(F)(F)F)ccnc1C[S+]([O-])c1nc2ccccc2[nH]1 (stereo not drawn) [lansoprazole] | high |  |  |
| COc1ccc2[nH]c([S+]([O-])Cc3ncc(C)c(OC)c3C)nc2c1 (stereo not drawn) [omeprazole] | high |  |  |
| CN1C(C(=O)Nc2ccccn2)=C(O)c2ccccc2S1(=O)=O [piroxicam] | high |  |  |
